We go through 14 compounds from ChEMBL document CHEMBL1134583, “Synthesis and biological activity of D- and L-chiro-inositol 2,3,4,5-tetrakisphosphate: design of a novel and potent inhibitor of Ins(3,4,5,6)P4 1-kinase/Ins(1,3,4)P3 5/6-kinase” (J Med Chem, 2001).

Several values for one entry are separate records, joined by “and”; a condition that tells them apart may be missing. Identical values can stand only once.

A word on the IC50: it is the concentration that gives 50% inhibition. A higher IC50 goes with weaker potency.

The nature of the first assay: Inhibition of Inositol (3,4,5,6)P4 1-kinase from bovine aorta. Details: species or system Bos taurus.
`O=P(O)(O)OC1C(OP(=O)(O)O)[C@H](O)[C@H](O)C(OP(=O)(O)O)[C@@H]1O` (stereo not given in full) came in with an IC50 of 280 nM.

The next assay in a line: Inhibition against Inositol (3,4,5,6)P4 1-kinase from bovine aorta. Further details: species or system Bos taurus.
`O=P(O)(O)OC1C(O)[C@H](O)[C@H](OP(=O)(O)O)C(OP(=O)(O)O)[C@@H]1O` (stereo not given in full) gave an IC50 of 17 µM.

As for `O=P(O)(O)OC1C(OP(=O)(O)O)[C@H](O)[C@H](O)C(OP(=O)(O)O)[C@@H]1O` (stereo not given in full), the IC50 is 0.17 µM and 0.2 µM.

Turning to `O=P(O)(O)OC1C(OP(=O)(O)O)[C@H](OP(=O)(O)O)[C@H](O)C(O)[C@@H]1O` (stereo not given in full), the midpoint of inhibition, the IC50, lay at 4.2 µM.

`O=P(O)(O)O[C@@H]1[C@@H](OP(=O)(O)O)[C@@H](OP(=O)(O)O)[C@H](O)[C@@H](O)[C@@H]1OP(=O)(O)O` registered an IC50 above 30 µM.

For `O=P(O)(O)O[C@H]1[C@H](O)[C@@H](OP(=O)(O)O)[C@H](OP(=O)(O)O)[C@@H](OP(=O)(O)O)[C@H]1O` (stereo in doubt; 14), the IC50 came out at 9 µM.

In turn, `O=P(O)(O)O[C@@H]1[C@@H](OP(=O)(O)O)[C@@H](OP(=O)(O)O)[C@@H](O)[C@@H](O)[C@@H]1OP(=O)(O)O` registered an IC50 above 30 µM.

With `O=P(O)(O)O[C@@H]1[C@H](O)[C@H](O)[C@@H](OP(=O)(O)O)[C@H](OP(=O)(O)O)[C@H]1O` [INS(1,4,5)P3], inhibition was half-maximal at 48 µM (IC50).

For the compound `O=P(O)(O)OC1C(OP(=O)(O)O)[C@@H](O)[C@H](OP(=O)(O)O)C(OP(=O)(O)O)[C@@H]1O` (stereo not given in full), the IC50 was determined as 14.5 µM.

Take `O=P(O)(O)O[C@H]1[C@H](OP(=O)(O)O)[C@@H](OP(=O)(O)O)[C@@H](O)[C@H](O)[C@H]1OP(=O)(O)O` (stereo in doubt; 3): the IC50 is 1.5 µM.

`O=P(O)(O)OC1C(OP(=O)(O)O)[C@H](O)[C@H](OP(=O)(O)O)C(O)[C@@H]1O` (stereo not given in full) displayed an IC50 of 0.7 µM.

Turning to `O=P(O)(O)OC1[C@H](O)C(O)C(OP(=O)(O)O)[C@H](O)[C@@H]1OP(=O)(O)O` (stereo not given in full), the IC50 was above 30 µM.

Consider `O=P(O)(O)O[C@H]1[C@H](O)[C@@H](OP(=O)(O)O)[C@H](OP(=O)(O)O)[C@@H](OP(=O)(O)O)[C@H]1O` (stereo in doubt; 13), for which half-maximal inhibition (IC50) required 16.7 µM.

`O=P(O)(O)O[C@H]1[C@H](OP(=O)(O)O)[C@@H](OP(=O)(O)O)[C@@H](O)[C@H](O)[C@H]1OP(=O)(O)O` (stereo in doubt; 12) displayed an IC50 of 1.6 µM.

As for `O=P(O)(O)OC1C(OP(=O)(O)O)[C@H](OP(=O)(O)O)[C@H](OP(=O)(O)O)C(OP(=O)(O)O)[C@@H]1O` (stereo not given in full) [IONOSITOL (1,3,4,5,6) P5], the IC50 was 15 µM.
